Experimental data as given in patent US11236147B2, “Methods and compositions for the inhibition of TRPV4” (CHILDREN'S MEDICAL CENTER CORPORATION, priority 2013, dated 2022).
“Also recorded” adds a separate entry of the source.

What was measured:
TRPV4 [1] = target: T1, TRPV4 (Homo sapiens, UniProt Q9HBA0); assay: Calcium imaging: calcium influx by chemical stimulation (4α-PDD); type: cell-based
T1 construct: Transient increases in intracellular calcium were detected quickly after force application in HUVE cells treated with control siRNA; endogenous in cells; host or cells: HUVE cells (ATCC) treated with control or CD98 siRNA
T1 sequence (Q9HBA0 whole entry): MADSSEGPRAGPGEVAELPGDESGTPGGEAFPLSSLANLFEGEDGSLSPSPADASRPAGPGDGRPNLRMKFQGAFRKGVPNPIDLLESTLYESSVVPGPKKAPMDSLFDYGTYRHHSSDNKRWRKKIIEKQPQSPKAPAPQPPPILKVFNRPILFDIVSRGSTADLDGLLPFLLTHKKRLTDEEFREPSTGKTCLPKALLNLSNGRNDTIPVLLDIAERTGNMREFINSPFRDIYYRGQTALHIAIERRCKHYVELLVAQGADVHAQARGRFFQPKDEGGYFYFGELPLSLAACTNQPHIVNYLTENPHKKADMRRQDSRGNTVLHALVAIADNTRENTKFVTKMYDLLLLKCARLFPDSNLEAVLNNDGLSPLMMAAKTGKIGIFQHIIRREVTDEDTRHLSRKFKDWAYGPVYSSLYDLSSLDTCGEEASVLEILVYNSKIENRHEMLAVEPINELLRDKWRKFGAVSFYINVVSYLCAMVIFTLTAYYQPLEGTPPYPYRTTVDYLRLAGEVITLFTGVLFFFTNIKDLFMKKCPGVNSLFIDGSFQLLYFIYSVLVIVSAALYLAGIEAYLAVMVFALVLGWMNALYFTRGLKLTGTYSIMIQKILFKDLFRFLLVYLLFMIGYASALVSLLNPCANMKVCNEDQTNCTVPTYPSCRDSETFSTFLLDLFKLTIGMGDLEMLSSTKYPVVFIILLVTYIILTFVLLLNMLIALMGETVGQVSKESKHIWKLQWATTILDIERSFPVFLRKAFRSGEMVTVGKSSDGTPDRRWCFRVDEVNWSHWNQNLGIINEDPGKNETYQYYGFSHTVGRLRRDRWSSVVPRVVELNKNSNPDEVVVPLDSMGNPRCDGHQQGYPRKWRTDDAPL
Protocol: (§1) FIG. 6A depicts a graph of the relative change in cytosolic calcium in response to static stretch (20%, 4 second arrow) in Fluo-4-loaded CE cells treated with control or CD98 siRNA. FIG. 6B depicts a graph of the average relative increases in cytosolic calcium induced by mechanical strain in HUVE cells treated with control or CD98 siRNA. FIG. 6C depicts a graph of the relative change in cytosolic calcium in response to 4α-PDD (10 μM) in Fluo-4-loaded CE cells treated with control or CD98 siRNA. FIG. 6D depicts a graph of the average relative increases in cytosolic calcium induced by chemical strain in HUVE cells treated with control or CD98 siRNA.
(§2) Specific inhibition of mechanical activation of TRPV4 activity. Moreover, TRPV4 is specifically activated by mechanical strain (12). To examine whether CD98 transducse the signal by mechanical stimulation through TRPV4, the calcium influx by mechanical stimulation was investigated. Transient increases in intracellular calcium were detected quickly after force application in HUVE cells treated with control siRNA. […] TRPV4 is also activated by chemical stimulation such as 4α-phorbol 12, 13-didecanoate (4α-PDD).
(§3) Mechanical strain application, measurement of cell orientation, Calcium Imaging were performed as described (Thodeti et al., 2009)

TRPV4 [2] = assay: Calcium imaging: calcium influx by mechanical stimulation; type: cell-based, human; conditions: HUVE cells, CD98 siRNA vs control siRNA, Fluo-4, static stretch 20%
Protocol: as §1, §2, §3

[3] = test system: binding between β1-integrin and TRPV4; assay: Immunoprecipitation of TRPV4 / β1-integrin binding in HUVE cells after CD98 siRNA knock down; type: cell-based, human; conditions: CD98 siRNA vs control siRNA, co-immunoprecipitation
Description: (§4) The cells were transfected with control or CD98 siRNA. The amount of each component in the total cell lysates is given in the left panel. In the right lanses the cell lysates were immunoprecipitates with rabbit anti-TRPV4 (upper) or mouse anti-β1-integrin antibody (lower).
(§5) CD98 mediates the binding between TRPV4 and β1-integrin at focal adhesion. The question is what the molecular mechanism is by which CD98 mediates the signaling from β1-integrin to TRPV4. CD98 is important for surface expression and clustering of β1-integrin in MCF7 cells (11). Therefore, it was examined whether CD98 mediates the binding between β1-integrin and TRPV4 using siRNA-based knockdown of CD98. […] Thus, CD98 deficiency doesn't affect the formation of focal adhesion.
(§6) siRNA knock down of CD98. RNA interference assay was conducted with human CD98 siRNA duplexes: 5′-[…]-3′ (SEQ ID NO: 21) and 5′-[…]-3′ (SEQ ID NO: 22). Cells were transfected with 50 nM of the siRNA duplexes in Opti-MEM™ (Invitrogen) using silentFect Lipid Reagent for RNAi (BIO-RAD), according to the manufacturer's instructions.
Immunoprecipitation. Cells were extracted in ice-cold TRITON™ buffer (50 mM Tris-HCL, pH 7.4, containing 150 mM NaCl, 1% TRITONX100™, 5 mM EDTA). […] Subsequently the beads were isolated by magnet and washed five times with TRITON™ buffer and then were detected by SDS-PAGE and immunoblotting.

HUVE cells [4] = assay: Localization of TRPV4, CD98, integrin and vinculin at focal adhesions (TIRF / immunofluorescence); type: cell-based, human; conditions: CD98 siRNA
Description: TRPV4 associates with CD98 and β1-integrin at focal adhesion. The terminal 6 amino acid residues at the carboxy end of the β1-integrin cytoplasmic mediate calcium signaling and are required for rapid force induced TRPV4-mediated calcium signaling (10). It was postulated that CD98, which binds to the last 6 carboxy terminal amino acids of β1-integrin, is involved in the TRPV4 activation by β1-integrin using genetically engineered mutant integrin constructs. First, it was confirmed that CD98 binds to integrins through the region of the β1-integrin tail using β1-integrin mutant constructs to transfect HEK293T cells followed by an immunoprecipitation assay. It was also confirmed that TRPV4 also interacts with the same region of β1-integrin using the same β1-integrin mutant constructs (data not shown). To explore the binding between those molecules, whether CD98 and β1-integrin can be co-precipitated from HUVE cell lysates using anti-TRPV4 antibody was determined (FIG. 1A). TRPV4 similarly precipitates with either anti-β1-integrin or anti-CD98 antibody (FIG. 1B). Moreover, it was confirmed that TRPV4 overlapped with CD98 at vinculin positive focal adhesions by Total Internal Reflection Fluorescence (TIRF, data not shown).
siRNA knock down of CD98. RNA interference assay was conducted with human CD98 siRNA duplexes: 5′-[…]-3′ (SEQ ID NO: 21) and 5′-[…]-3′ (SEQ ID NO: 22). […]

TRPV4 [5] = assay: TRPV4 expression in total cell lysates after CD98 knock down; type: cell-based, human; conditions: HUVE cells, CD98 siRNA
Protocol: as §4, §6

HUVE cells [6] = assay: Actin rearrangement / cell orientation after 20% uniaxial cyclic strain; type: cell-based, human
Protocol: (§7) CD98 involves actin rearrangement on mechanotransduction. To confirm that CD98 translates the mechanical signal from β1-integrin to TRPV4 by mediating the binding, it was examined whether CD98 is required for the actin arrangement induced by cyclic strain. To analyze it, HUVE cells were cultured on flexible fibronectin-coated substrates and subjected to 20% uniaxial cyclic strain using a FlexrCell™ Tension Plus system. […] In contrast, this response was abolished by the treatment with CD98 siRNA (FIG. 5).
as §3
as §7, with “To” for “CD98 involves actin rearrangement on mechanotransduction. To”, “FlexrCell” for “FlexrCell™”, “Plus™” for “Plus”

HUVE cells [7] = assay: Scratch wound cell migration assay; type: cell-based, human; conditions: monolayer HUVE cells, CD98 siRNA vs control siRNA
Description: as §5
It was next asked whether CD98 serves to link β1-integrin to TRPV4. […] Thus, CD98 is not required for focal adhesion formation or function. […] Although TRPV4 expression was not decreased, TRPV4 couldn't localize at focal adhesions (data not shown).

[8] = target: T2, binding between β1-integrin and TRPV4 (Homo sapiens, UniProt P05556+Q9HBA0); assay: Immunoprecipitation binding assay in HEK293T cells transfected with HA-linked CD98 high homology domain; type: cell-based; conditions: HEK293T cells, 2.5, 5 μg HA-linked CD98 high homology domain vs HA vector, 24 h
T2 construct: endogenous in cells; host or cells: HEK293T cells (ATCC); only the HA-CD98 high homology domain is transfected
T2 sequence (Q9HBA0 whole entry, the tested form may be a part): as the sequence (Q9HBA0 whole entry) above
T2 sequence (P05556 21-798): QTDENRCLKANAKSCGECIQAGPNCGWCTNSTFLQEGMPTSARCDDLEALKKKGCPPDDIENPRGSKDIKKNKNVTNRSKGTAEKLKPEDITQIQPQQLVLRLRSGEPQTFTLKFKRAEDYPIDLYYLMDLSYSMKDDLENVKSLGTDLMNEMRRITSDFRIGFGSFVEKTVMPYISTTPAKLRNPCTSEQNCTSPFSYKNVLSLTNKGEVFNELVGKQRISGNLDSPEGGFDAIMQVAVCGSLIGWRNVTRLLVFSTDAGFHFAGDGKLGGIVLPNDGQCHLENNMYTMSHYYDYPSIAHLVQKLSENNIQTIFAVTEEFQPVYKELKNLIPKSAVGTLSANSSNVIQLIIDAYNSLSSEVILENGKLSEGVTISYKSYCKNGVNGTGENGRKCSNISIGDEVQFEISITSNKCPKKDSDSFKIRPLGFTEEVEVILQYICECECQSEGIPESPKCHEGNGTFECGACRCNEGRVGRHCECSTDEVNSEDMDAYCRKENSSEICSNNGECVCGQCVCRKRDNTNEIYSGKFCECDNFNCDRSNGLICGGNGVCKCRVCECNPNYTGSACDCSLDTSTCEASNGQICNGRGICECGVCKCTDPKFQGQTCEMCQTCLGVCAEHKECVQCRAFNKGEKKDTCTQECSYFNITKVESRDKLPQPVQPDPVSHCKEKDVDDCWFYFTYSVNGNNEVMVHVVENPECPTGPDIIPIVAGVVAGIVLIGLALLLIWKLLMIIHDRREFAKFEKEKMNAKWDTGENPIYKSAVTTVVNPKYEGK
Protocol: 2.5, 5 μg HA-linked CD98 high homology domain or 5 μg HA vector was transfected into HEK293T cells, and the binding assay was performed 24 h later. The bottom panel gives the amount of each transgene in total cell lysates of respective transfectants. In the top or the 3rd panel, the lysates were immunoprecipitated with an anti-β1-integrin or TRPV4 antibody, and the amount of TRPV4 or β1-integrin in the precipitates was blotted with each antibodies. The 2nd or the 4th panel gives the amount of β1-integrin or TRPV4 in total cell lysates.
Immunoprecipitation. Cells were extracted in ice-cold TRITON™ buffer (50 mM Tris-HCL, pH 7.4, containing 150 mM NaCl, 1% TRITONX100™, 5 mM EDTA). Cell extracts were centrifuged at 10000 g for 15 min at 4° C. prior to being immunoprecipitated with each antibodies and DYNABEADS™ Magnetic Beads (Invitrogen) at 4° C. Subsequently the beads were isolated by magnet and washed five times with TRITON™ buffer and then were detected by SDS-PAGE and immunoblotting.
As described above, high homology domain of CD98 is important for the binging to either β1-integrin or TRPV4. […] Therefore, CD98 mediates the binding between β1-integrin and TRPV4 at focal adhesion through high homology domain of CD98.

TRPV4 [9] = target: T3, TRPV4 (Rattus norvegicus, UniProt Q9ERZ8); conditions: rats; cited from earlier work
T3 construct: host or cells: rats, in vivo
T3 sequence (Q9ERZ8 whole entry): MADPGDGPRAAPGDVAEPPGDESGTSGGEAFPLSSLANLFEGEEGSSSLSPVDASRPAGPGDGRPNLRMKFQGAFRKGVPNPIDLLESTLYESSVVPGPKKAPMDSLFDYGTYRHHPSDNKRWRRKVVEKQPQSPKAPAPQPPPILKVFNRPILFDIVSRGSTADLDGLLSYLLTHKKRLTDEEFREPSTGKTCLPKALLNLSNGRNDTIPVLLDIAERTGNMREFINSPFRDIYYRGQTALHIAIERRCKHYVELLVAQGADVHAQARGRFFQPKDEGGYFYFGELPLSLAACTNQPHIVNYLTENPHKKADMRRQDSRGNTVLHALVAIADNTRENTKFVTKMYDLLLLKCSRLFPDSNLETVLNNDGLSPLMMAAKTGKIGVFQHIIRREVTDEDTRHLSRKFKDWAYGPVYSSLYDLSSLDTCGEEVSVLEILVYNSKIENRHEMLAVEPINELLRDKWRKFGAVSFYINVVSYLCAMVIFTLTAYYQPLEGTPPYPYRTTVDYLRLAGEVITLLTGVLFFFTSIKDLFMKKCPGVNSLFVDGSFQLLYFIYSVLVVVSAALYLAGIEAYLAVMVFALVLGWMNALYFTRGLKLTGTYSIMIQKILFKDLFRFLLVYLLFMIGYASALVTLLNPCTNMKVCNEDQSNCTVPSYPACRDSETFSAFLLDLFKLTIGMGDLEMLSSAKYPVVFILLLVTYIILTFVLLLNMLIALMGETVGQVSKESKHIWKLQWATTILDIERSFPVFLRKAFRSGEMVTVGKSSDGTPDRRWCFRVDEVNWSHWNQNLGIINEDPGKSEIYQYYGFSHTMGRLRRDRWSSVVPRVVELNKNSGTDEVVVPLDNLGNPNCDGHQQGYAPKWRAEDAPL

TRPV4 [10] = target: T4, TRPV4 (Mus musculus, UniProt Q9EPK8); conditions: mice; cited from earlier work
T4 construct: host or cells: mice, in vivo
T4 sequence (Q9EPK8 whole entry): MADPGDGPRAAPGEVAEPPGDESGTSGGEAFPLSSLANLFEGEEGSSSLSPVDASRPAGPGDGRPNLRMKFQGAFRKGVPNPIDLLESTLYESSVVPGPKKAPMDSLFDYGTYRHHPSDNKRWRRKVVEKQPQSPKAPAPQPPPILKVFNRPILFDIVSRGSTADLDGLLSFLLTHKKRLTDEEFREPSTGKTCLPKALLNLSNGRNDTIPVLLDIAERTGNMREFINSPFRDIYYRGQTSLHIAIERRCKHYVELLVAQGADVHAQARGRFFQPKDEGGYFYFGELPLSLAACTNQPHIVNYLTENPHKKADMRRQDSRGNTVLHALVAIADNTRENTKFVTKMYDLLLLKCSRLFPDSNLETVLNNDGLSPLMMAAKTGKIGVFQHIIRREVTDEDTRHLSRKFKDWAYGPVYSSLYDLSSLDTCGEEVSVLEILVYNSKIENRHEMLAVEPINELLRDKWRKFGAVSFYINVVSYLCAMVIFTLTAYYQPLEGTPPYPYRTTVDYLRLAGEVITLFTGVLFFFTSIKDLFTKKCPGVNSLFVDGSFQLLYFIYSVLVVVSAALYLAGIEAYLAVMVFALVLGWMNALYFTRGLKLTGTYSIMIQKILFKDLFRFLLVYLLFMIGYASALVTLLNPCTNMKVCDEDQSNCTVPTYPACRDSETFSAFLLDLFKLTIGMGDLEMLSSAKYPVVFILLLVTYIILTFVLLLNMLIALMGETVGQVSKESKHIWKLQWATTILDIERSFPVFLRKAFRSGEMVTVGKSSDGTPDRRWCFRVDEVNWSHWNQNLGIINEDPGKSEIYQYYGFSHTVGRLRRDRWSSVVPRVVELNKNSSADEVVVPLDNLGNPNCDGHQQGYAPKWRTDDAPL

TRPV4 [11] = target: T1, TRPV4; conditions: human lung-on-a-chip microdevice, IL2-induced; cited from earlier work
TRPV4 [12] = target: T5, TRPV4 (Canis lupus familiaris, UniProt A0A8I3PAV3); conditions: dog; cited from earlier work
T5 construct: host or cells: dog, in vivo
T5 sequence (A0A8I3PAV3 1-828): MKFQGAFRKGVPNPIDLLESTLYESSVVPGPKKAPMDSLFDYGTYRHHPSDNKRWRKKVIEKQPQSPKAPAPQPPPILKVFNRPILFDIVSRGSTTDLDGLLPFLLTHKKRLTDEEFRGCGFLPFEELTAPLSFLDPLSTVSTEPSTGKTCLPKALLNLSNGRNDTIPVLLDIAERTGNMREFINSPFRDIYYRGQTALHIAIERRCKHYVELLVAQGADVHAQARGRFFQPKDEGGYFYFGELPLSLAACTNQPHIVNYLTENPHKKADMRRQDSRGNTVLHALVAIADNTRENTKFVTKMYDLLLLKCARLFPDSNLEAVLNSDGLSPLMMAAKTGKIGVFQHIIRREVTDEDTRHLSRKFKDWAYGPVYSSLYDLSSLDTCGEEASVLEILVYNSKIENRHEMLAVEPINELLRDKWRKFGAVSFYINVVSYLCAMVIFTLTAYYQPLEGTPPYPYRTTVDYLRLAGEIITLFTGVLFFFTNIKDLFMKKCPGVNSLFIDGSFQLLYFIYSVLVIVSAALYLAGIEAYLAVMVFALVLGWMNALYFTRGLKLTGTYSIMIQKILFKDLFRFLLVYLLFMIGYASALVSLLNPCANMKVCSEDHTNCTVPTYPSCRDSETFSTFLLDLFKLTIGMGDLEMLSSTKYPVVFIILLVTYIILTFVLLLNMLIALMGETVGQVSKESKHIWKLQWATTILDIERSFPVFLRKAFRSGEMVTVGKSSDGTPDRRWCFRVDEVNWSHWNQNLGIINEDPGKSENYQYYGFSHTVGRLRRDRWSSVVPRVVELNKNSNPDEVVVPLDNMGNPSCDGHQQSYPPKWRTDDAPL

## CCCCCCCCCC(=O)O[C@@H]1[C@@H](C)[C@@]2(O)[C@@H](C=C(CO)C[C@@]3(O)C(=O)C(C)=C[C@@H]23)[C@@H]2C(C)(C)[C@]12OC(=O)CCCCCCCCC [4α-PDD, 4α-phorbol 12, 13-didecanoate]
TRPV4 [1]; HUVE cells treated with either control or CD98 siRNA, 4α-PDD 10 μM
  intracellular calcium in response to 4α-PDD: rapid increase in intracellular calcium

## CD98 siRNA: human CD98 siRNA duplexes: 5′-GAAUGGUCUGGUGAAGAUC-3′ (SEQ ID NO: 21) and 5′-GAUCUUCACCAGACCAUUC-3′ (SEQ ID NO: 22) (listed as RNA, chemistry not given here; listed as Homo sapiens)
TRPV4 [1]; HUVE cells, CD98 siRNA vs control siRNA
  calcium influx of TRPV4 activation by chemical treatment: not inhibited; also recorded: not by chemical activators
TRPV4 [2]
  transient increase in intracellular calcium after force application (mechanical activation of TRPV4): inhibited; also recorded: didn't show this response; also recorded: inhibits calcium influx
[3]
  association (binding) of TRPV4 and β1-integrin: can't bind to β1-integrin; also recorded: decreased association of TRPV4 and β1-integrin; also recorded: greatly reduced the amount of the binding between β1-integrin and TRPV4
HUVE cells [4]
  TRPV4 localization at focal adhesions: can't localize at focal adhesion; also recorded: loss of TRPV4 from focal adhesions; also recorded: prevented; also recorded: greatly reduced the amount of both CD98 and TRPV4 within focal adhesions
  recruitment of integrins or vinculin to focal adhesions: no effect
TRPV4 [5]
  TRPV4 expression: not decreased
HUVE cells [6]; HUVE cells, CD98 siRNA vs control siRNA, 20% uniaxial cyclic strain, 2 hours
  stress fiber realignment (actin rearrangement) induced by cyclic strain: inhibited; also recorded: abolished
HUVE cells [7]
  cell migration in scratch wound assay: normally restored; also recorded: did not interfere with cell migration

## high homology domain of CD98: domain of CD98 having the sequence of SEQ ID NO: 1; N-terminal region highly conserved from Drosophila to mammals (KFTGLSKEELLKVAGSPGWVRTRWALLLLFWLGWLGMLAGAVVIIVRAPRC)
[8]
  β1-integrin binding to TRPV4: decreased
[8]; listed as high homology domain
  β1-integrin binding to TRPV4: inhibited
HUVE cells [6]; HUVE cells overexpressing high homology domain of CD98 vs vector
  actin rearrangements after mechanical strain: didn't show actin rearrangements

## O=C(NC1(c2ccccc2)CC1)c1c(CN2CCC(N3CCCCC3)CC2)c(-c2cccc(C(F)(F)F)c2)nc2cc(Br)ccc12 [GSK2193874]
TRPV4 [9]
  cardiogenic pulmonary edema: prevents cardiogenic pulmonary edema
TRPV4 [10]
  cardiogenic pulmonary edema: prevents cardiogenic pulmonary edema
TRPV4 [11]
  pulmonary vascular leakage and lung edema development: prevent pulmonary vascular leakage and lung edema development
TRPV4 [12]
  cardiogenic pulmonary edema: prevents cardiogenic pulmonary edema
